Laboratory results: PMC10004634 (PLOS ONE, 2023)
Read-outs that look alike come from different tables or passages of the source.

Legend:
Assay in all cases: biochemical
PDGFRA = PDGFRA (Homo sapiens, UniProt P16234); set-up: KINOMEscan scanMAX competition binding, DNA-tagged kinases, qPCR read-out, percent control at 300 nM
CLK3 = CLK3 (Homo sapiens, UniProt P49761); set-up: KINOMEscan scanMAX competition binding, DNA-tagged kinases, qPCR read-out, percent control at 300 nM
STK16 = STK16 (Homo sapiens, UniProt O75716); set-up: KINOMEscan scanMAX competition binding, DNA-tagged kinases, qPCR read-out, percent control at 300 nM
Chain of STK16 (O75716 whole entry): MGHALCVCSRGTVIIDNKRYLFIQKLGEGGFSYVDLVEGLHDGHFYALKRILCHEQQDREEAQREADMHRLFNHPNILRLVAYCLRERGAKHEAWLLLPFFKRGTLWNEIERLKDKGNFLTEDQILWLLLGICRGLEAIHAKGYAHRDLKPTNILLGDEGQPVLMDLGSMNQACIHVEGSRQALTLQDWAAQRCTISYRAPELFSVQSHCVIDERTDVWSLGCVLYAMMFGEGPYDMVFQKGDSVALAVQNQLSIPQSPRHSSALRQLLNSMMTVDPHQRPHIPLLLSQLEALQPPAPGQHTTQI

TNIK = TNIK (Homo sapiens, UniProt Q9UKE5); set-up: KINOMEscan scanMAX competition binding, DNA-tagged kinases, qPCR read-out, percent control at 300 nM
TIE1 = TIE1 (Homo sapiens, UniProt P35590); set-up: KINOMEscan scanMAX competition binding, DNA-tagged kinases, qPCR read-out, percent control at 300 nM
EGFR(L858R) = EGFR(L858R) (Homo sapiens, UniProt P00533, L858R); set-up: KINOMEscan scanMAX competition binding, DNA-tagged kinases, qPCR read-out, percent control at 300 nM
YANK2 = target: T1, YANK2 (Homo sapiens, UniProt Q9NY57); set-up: KINOMEscan scanMAX competition binding, DNA-tagged kinases, qPCR read-out, percent control at 300 nM
T1 construct: gene STK32B

FLT4 = FLT4 (Homo sapiens, UniProt P35916); set-up: KINOMEscan scanMAX competition binding, DNA-tagged kinases, qPCR read-out, percent control at 300 nM
Chain of FLT4 (P35916 whole entry): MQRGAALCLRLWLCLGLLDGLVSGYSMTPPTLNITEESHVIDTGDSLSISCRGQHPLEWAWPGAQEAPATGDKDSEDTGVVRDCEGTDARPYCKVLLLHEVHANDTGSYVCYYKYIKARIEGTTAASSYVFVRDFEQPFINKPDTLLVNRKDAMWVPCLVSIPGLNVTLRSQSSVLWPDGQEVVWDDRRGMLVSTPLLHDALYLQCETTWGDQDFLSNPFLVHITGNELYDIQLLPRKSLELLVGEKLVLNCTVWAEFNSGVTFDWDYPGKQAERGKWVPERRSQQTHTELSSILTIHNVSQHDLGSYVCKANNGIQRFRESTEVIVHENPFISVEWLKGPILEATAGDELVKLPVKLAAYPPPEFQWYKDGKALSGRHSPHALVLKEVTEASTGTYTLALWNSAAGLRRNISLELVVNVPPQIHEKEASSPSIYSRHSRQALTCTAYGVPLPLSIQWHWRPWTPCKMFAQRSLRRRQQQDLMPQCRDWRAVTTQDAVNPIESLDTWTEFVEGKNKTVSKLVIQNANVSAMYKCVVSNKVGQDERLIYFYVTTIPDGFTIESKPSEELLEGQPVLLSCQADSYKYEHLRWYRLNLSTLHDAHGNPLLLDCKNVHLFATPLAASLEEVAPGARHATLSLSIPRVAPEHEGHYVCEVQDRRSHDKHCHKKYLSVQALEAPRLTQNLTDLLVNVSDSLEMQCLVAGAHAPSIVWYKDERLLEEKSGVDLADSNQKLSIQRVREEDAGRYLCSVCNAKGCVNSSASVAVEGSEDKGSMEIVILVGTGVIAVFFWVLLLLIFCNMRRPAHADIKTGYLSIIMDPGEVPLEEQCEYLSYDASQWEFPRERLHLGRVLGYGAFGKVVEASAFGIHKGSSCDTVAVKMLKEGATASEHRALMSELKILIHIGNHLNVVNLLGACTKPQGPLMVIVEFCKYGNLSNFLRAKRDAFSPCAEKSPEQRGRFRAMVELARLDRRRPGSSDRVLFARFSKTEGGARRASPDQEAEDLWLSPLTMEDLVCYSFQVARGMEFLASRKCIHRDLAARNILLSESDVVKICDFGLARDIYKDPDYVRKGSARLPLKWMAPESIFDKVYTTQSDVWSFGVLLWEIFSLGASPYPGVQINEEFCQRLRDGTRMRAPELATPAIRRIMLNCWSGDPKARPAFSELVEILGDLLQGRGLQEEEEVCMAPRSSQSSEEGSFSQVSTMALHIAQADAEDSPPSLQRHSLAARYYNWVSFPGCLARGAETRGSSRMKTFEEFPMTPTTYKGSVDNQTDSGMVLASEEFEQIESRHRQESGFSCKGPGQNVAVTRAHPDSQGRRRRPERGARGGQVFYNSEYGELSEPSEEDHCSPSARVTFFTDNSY

CAMK1G = CAMK1G (Homo sapiens, UniProt Q96NX5); set-up: KINOMEscan scanMAX competition binding, DNA-tagged kinases, qPCR read-out, percent control at 300 nM
Chain of CAMK1G (Q96NX5 whole entry): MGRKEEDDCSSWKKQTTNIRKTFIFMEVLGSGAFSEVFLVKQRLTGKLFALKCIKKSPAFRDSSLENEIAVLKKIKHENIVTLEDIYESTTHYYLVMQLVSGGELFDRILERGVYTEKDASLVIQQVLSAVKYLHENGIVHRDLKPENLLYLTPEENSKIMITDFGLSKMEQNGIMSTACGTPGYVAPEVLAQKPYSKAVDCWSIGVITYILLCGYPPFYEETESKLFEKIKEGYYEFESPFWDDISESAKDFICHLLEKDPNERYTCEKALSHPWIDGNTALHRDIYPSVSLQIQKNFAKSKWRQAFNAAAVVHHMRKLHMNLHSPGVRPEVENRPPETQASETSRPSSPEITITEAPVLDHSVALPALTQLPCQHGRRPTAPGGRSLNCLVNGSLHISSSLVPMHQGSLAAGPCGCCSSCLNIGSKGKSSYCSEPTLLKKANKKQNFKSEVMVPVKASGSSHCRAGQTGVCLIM

JNK1 = target: T2, JNK1 (Homo sapiens, UniProt P45983); set-up: KINOMEscan scanMAX competition binding, DNA-tagged kinases, qPCR read-out, percent control at 300 nM
T2 construct: gene MAPK8

ABL2 = ABL2 (Homo sapiens, UniProt P42684); set-up: KINOMEscan scanMAX competition binding, DNA-tagged kinases, qPCR read-out, percent control at 300 nM
MARK2 = MARK2 (Homo sapiens, UniProt Q7KZI7); set-up: KINOMEscan scanMAX competition binding, DNA-tagged kinases, qPCR read-out, percent control at 300 nM
Chain of MARK2 (Q7KZI7 whole entry): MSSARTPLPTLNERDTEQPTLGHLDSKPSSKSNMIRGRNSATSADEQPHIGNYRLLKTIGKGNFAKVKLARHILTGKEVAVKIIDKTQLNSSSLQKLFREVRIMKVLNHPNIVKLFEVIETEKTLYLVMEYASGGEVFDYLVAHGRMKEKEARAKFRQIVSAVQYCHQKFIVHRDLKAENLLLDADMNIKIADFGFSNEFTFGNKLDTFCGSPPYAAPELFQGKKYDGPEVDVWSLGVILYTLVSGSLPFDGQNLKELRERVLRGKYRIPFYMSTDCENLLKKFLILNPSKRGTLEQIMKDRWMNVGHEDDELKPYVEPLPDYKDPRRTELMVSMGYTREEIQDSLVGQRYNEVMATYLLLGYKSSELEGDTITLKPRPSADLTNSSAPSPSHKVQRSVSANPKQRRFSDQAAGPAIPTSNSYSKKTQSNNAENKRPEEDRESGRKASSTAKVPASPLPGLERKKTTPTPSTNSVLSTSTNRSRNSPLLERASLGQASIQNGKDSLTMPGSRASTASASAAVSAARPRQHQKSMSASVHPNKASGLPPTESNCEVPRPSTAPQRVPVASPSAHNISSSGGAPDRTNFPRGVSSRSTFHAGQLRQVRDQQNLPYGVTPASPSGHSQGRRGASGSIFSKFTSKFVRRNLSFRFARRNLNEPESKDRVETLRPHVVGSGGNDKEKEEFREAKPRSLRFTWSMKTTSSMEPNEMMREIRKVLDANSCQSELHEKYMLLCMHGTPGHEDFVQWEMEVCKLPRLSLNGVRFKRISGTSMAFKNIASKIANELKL

SRPK3 = SRPK3 (Homo sapiens, UniProt Q9UPE1); set-up: KINOMEscan scanMAX competition binding, DNA-tagged kinases, qPCR read-out, percent control at 300 nM
Chain of SRPK3 (Q9UPE1 whole entry): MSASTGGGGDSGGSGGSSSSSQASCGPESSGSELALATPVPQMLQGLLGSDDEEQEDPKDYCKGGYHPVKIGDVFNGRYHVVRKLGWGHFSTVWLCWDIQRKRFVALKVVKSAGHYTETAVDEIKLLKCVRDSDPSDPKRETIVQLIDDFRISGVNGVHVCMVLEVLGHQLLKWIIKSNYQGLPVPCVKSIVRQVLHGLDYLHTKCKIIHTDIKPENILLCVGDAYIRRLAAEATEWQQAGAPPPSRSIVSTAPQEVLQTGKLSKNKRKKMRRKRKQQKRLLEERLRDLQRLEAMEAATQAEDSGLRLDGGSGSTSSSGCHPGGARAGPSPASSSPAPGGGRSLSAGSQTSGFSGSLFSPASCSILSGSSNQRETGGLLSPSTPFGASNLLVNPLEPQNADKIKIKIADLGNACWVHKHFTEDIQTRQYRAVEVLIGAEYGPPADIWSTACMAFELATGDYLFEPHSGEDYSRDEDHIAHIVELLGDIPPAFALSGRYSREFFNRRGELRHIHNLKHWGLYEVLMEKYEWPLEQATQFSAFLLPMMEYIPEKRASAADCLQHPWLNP

[1] = target: T3, RSK1(Kin.Dom.1-N-terminal) (Homo sapiens, UniProt Q15418); set-up: KINOMEscan scanMAX competition binding, DNA-tagged kinases, qPCR read-out, percent control at 300 nM
T3 construct: gene RPS6KA1; Kin.Dom.1-N-terminal
T3 sequence (Q15418 whole entry): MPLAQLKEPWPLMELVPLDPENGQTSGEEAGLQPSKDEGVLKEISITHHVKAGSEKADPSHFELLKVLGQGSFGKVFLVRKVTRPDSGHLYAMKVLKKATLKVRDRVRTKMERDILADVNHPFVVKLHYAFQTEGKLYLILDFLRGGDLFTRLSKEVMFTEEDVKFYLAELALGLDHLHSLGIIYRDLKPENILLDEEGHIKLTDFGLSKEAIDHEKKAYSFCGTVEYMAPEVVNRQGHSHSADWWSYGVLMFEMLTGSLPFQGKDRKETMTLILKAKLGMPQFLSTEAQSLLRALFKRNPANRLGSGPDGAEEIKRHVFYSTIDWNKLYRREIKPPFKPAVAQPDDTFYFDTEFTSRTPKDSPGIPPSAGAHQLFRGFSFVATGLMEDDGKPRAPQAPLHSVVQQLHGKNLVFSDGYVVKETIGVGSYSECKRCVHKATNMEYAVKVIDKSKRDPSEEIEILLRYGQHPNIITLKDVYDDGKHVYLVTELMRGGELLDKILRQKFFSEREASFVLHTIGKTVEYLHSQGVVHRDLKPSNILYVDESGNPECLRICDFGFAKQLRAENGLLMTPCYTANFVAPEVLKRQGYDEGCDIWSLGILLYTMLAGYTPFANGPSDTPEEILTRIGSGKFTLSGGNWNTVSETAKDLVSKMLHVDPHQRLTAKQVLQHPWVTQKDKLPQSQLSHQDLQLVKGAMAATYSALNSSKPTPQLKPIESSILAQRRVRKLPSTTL

FLT3(K663Q) = target: T4, FLT3(K663Q) (Homo sapiens, UniProt P36888, K663Q); set-up: KINOMEscan scanMAX competition binding, DNA-tagged kinases, qPCR read-out, percent control at 300 nM
T4 sequence (P36888 1-993 K663Q): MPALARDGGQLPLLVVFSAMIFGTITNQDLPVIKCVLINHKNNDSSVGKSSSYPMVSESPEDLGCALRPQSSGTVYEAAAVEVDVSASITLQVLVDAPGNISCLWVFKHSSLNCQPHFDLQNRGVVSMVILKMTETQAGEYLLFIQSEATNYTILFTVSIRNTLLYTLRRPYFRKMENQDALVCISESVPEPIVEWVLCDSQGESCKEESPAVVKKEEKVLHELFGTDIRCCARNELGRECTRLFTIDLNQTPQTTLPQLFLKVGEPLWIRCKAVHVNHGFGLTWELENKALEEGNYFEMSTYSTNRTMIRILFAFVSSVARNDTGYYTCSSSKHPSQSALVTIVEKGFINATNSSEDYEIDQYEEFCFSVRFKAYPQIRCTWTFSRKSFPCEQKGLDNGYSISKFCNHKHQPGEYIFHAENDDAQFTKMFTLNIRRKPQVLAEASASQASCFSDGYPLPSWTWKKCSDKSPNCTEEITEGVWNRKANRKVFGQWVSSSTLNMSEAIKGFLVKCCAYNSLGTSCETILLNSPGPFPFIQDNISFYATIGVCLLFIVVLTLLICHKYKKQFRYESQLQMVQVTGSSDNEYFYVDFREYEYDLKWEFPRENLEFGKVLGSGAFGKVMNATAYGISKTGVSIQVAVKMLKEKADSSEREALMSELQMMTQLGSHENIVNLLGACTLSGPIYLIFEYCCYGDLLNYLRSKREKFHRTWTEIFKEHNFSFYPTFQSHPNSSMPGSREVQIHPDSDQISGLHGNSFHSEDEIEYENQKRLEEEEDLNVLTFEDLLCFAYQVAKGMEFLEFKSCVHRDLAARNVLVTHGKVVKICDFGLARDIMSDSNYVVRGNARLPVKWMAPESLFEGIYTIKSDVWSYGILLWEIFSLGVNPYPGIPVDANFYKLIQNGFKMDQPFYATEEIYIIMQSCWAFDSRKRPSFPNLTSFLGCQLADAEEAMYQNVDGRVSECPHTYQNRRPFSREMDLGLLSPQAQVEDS

PFCDPK1(P.falciparum) = target: T5, PFCDPK1(P.falciparum) (Plasmodium falciparum, UniProt P62344)
T5 construct: gene CDPK1

[2] = read-out: Percent control / Tirabrutinib
[3] = read-out: Percent control / Zanubrutinib
[4] = read-out: Percent control / Acalabrutinib
[5] = read-out: Percent control / Ibrutinib

Chain of CLK3 (P49761 whole entry): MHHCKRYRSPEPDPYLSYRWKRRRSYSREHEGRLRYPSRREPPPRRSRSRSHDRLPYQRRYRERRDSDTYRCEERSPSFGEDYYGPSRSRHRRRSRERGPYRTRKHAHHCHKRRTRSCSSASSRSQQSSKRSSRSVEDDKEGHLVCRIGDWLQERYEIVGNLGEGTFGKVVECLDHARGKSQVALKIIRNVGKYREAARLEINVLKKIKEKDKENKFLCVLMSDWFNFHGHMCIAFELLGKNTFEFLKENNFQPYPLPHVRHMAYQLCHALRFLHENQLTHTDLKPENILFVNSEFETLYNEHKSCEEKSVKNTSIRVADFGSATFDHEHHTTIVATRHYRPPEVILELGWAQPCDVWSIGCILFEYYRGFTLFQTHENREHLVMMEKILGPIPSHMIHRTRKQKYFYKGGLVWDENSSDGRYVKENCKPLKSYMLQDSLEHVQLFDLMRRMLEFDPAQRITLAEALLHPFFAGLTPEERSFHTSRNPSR

CC#CC(=O)N1CC[C@@H](n2c(=O)n(-c3ccc(Oc4ccccc4)cc3)c3c(N)ncnc32)C1 [Tirabrutinib]
remaining binding at 0.3 µM (PDGFRA; [2]): 95% | remaining binding at 0.3 µM (CLK3; [2]): 82% | remaining binding at 0.3 µM (STK16; [2]): 82% | remaining binding at 0.3 µM (TNIK; [2]): 92% | remaining binding at 0.3 µM (TIE1; [2]): 90% | remaining binding at 0.3 µM (EGFR(L858R); [2]): 97% | remaining binding at 0.3 µM (YANK2; [2]): 87% | remaining binding at 0.3 µM (FLT4; [2]): 99% | remaining binding at 0.3 µM (CAMK1G; [2]): 98% | remaining binding at 0.3 µM (JNK1; [2]): 83%

C=CC(=O)N1CCC([C@@H]2CCNc3c(C(N)=O)c(-c4ccc(Oc5ccccc5)cc4)nn32)CC1 [Zanubrutinib]
remaining binding at 0.3 µM (PDGFRA; [3]): 100% | remaining binding at 0.3 µM (CLK3; [3]): 82% | remaining binding at 0.3 µM (STK16; [3]): 100% | remaining binding at 0.3 µM (ABL2; [3]): 77% | remaining binding at 0.3 µM (TNIK; [3]): 85% | remaining binding at 0.3 µM (TIE1; [3]): 98% | remaining binding at 0.3 µM (YANK2; [3]): 96% | remaining binding at 0.3 µM (MARK2; [3]): 90% | remaining binding at 0.3 µM (FLT4; [3]): 100% | remaining binding at 0.3 µM (SRPK3; [3]): 100% | remaining binding at 0.3 µM (CAMK1G; [3]): 96% | remaining binding at 0.3 µM (JNK1; [3]): 100% | remaining binding at 0.3 µM [1, 3]: 74% | remaining binding at 0.3 µM (FLT3(K663Q); [3]): 61% | remaining activity at 0.3 µM (PFCDPK1(P.falciparum); [3]): 7.4%

CC#CC(=O)N1CCC[C@H]1c1nc(-c2ccc(C(=O)Nc3ccccn3)cc2)c2c(N)nccn12 [Acalabrutinib]
remaining binding at 0.3 µM (CLK3; [4]): 94% | remaining binding at 0.3 µM (STK16; [4]): 86% | remaining binding at 0.3 µM (ABL2; [4]): 97% | remaining binding at 0.3 µM (TNIK; [4]): 79% | remaining binding at 0.3 µM (TIE1; [4]): 86% | remaining binding at 0.3 µM (EGFR(L858R); [4]): 93% | remaining binding at 0.3 µM (YANK2; [4]): 89% | remaining binding at 0.3 µM (MARK2; [4]): 91% | remaining binding at 0.3 µM (FLT4; [4]): 96% | remaining binding at 0.3 µM (SRPK3; [4]): 86% | remaining binding at 0.3 µM (CAMK1G; [4]): 97% | remaining binding at 0.3 µM (JNK1; [4]): 93% | remaining binding at 0.3 µM [1, 4]: 79% | remaining binding at 0.3 µM (FLT3(K663Q); [4]): 87% | remaining activity at 0.3 µM (PFCDPK1(P.falciparum); [4]): 23%

C=CC(=O)N1CCC[C@@H](n2nc(-c3ccc(Oc4ccccc4)cc3)c3c(N)ncnc32)C1 [Ibrutinib]
remaining binding at 0.3 µM (PDGFRA; [5]): 96% | remaining binding at 0.3 µM (STK16; [5]): 98% | remaining binding at 0.3 µM (ABL2; [5]): 82% | remaining binding at 0.3 µM (TNIK; [5]): 86% | remaining binding at 0.3 µM (TIE1; [5]): 75% | remaining binding at 0.3 µM (EGFR(L858R); [5]): 5.6% | remaining binding at 0.3 µM (YANK2; [5]): 76% | remaining binding at 0.3 µM (MARK2; [5]): 87% | remaining binding at 0.3 µM (FLT4; [5]): 57% | remaining binding at 0.3 µM (SRPK3; [5]): 96% | remaining binding at 0.3 µM (JNK1; [5]): 96% | remaining binding at 0.3 µM [1, 5]: 98% | remaining binding at 0.3 µM (FLT3(K663Q); [5]): 45% | remaining activity at 0.3 µM (PFCDPK1(P.falciparum); [5]): 0.9%
